From patent US7279321B2, “Methods for increasing the resistance of a host cell to aromatic carboxylic acids” (priority 2003, dated 2007) come the findings set out here.

Common to all, as to assay type: cell-based
For one series, the system named is E. coli MG1655 (yhcP+). The series can be described thus: microbe, parasite or virus in culture. Particulars: for MIC, MG1655 (yhcP+): 16 to 18 hours at 37° C., 0.01% tetrazolium violet; for Rank Diff: score of pigment color for MG1655 at the MIC for DPD2444 (0 = no color, 4 = full purple color); for MIC: Escherichia coli, MG1655, read-out: MIC, MG1655 (yhcP+). As for the experimental part: (§1) Additional compounds were tested for growth inhibition of E. coli MG1655 (yhcP^+) and DPD2444 (yhcP^−) in Vogel-Bonner medium with glucose as the carbon source and with 0.01% tetrazolium violet added as an indicator of viability. A series of two-fold dilutions of each chemical was made to the wells of a clear 96-well microplate in 50 μl volume. To these wells was added 50 μl of an overnight culture in Vogel Bonner medium with glucose as a carbon source of either MG1655 or DPD2444 that had been previously diluted 500-fold into fresh medium. The plates were incubated at 37° C. without shaking for 16 to 18 hours. The purple color in each well was visually scored. A score of 4+ indicated full purple color equivalent to a no chemical control well. Scores of 3+, 2+, or 1+ indicated decreasing amounts of purple color. A score of − indicated the complete absence of color. The MIC was defined as the lowest tested concentration that gave complete absence of color. The rank of difference between strains was defined as the score of pigment color for E. coli MG1655 in wells containing the concentration of a given chemical at the MIC for DPD24444. When MG1655 had no color, the score was 0. When MG 1655 was scored at 1+, the score was 1, when scored at 2+, the score was 2, etc.

The subject of a further series is E. coli DPD2444 (yhcP−). The series can be described thus: microbe, parasite or virus in culture. The following applies: for MIC, DPD2444 (yhcP−): 16 to 18 hours at 37° C., 0.01% tetrazolium violet; for Fold Diff: MIC MG1655 versus MIC DPD2444; for MIC: Escherichia coli, read-out: MIC, DPD2444 (yhcP−); for defined as substrate of the YhcP efflux pump by this genetic test: MIC difference at least 2-fold and rank at least 2. As for the experimental part:
as §1

Series [1] relates to E. coli strain DPD2444 (yhcP−, strain 16) compared with MG1655 (yhcP+, strain 14). Briefly: Phenotype MicroArray chemical sensitivity test (Biolog). The procedure: To further define substrates of this efflux system, other molecules were tested with this genetic test. […] E. coli strains DPD2444 (yhcP^−) and MG1655 (yhcP^+) were tested for inhibition by a large number of chemicals at Biolog Inc. (Hayward, Calif.) using the Phenotype MicroArray™ 1-20. The basis of this technology has been described in a recent publication (Bochner et al., Genome Res., 11:1246-1255 (2001)). The chemical sensitivity test was done with 240 compounds at 4 concentrations each. These chemicals included aromatic and heterocyclic molecules, such as acriflavin, dichloro-8-hydroxyquinoline, 9-aminoacridine, fusaric acid, salicylic acid, phenylethanol, o-cresol, m-cresol, p-cresol, pentachlorophenol, coumarin, DL 3-phenyl lactic acid, and cinnamic acid. Also included were numerous antibiotics and other antimicrobial compounds, including several weak acids and other compounds that would disrupt proton flux. Cinnamic acid was the only compound of the 240 tested for which strain DPD2444 was hypersensitive as compared with MG1655. The report regarding the increased sensitivities of strain DPD2444 (strain 16) compared with MG1655 (strain 14) is quoted below in Table 6.

Series [2] deals with yhcP gene (co-transcribed with yhcQ and yhcR). Briefly: expression of yhcP upon treatment of E. coli cells with aromatic carboxylic acids.

≈ marks a conversion by molar mass, not a printed value.

Consider `O=C(O)c1ccc(C(=O)O)c2ccccc12` [1,4-naphthalenedicarboxyylic acid], for which, in the series on E. coli MG1655 (yhcP+), the “MIC, MG1655 (yhcP+)” value was found to be 10 mM (≈ 2160 µg/mL) and the “Rank Diff” value turned out to be 0. Further, in the series with E. coli DPD2444 (yhcP−), the “MIC, DPD2444 (yhcP−)” value is reported as 10 mM (≈ 2160 µg/mL) and the “Fold Diff” value is reported as 1.

Turning to `Oc1cccc2c(O)cccc12` [1,5-dihydroxynaphthalene], in the series with E. coli MG1655 (yhcP+), the MIC came out at 0.5 mM (≈ 80.1 µg/mL) and the “Rank Diff” value is recorded as 1. Also, in the series with E. coli DPD2444 (yhcP−), the MIC was 0.25 mM (≈ 40 µg/mL) and the “Fold Diff” value amounted to 2.

Consider `Oc1ccc2c(O)cccc2c1` [1,6-dihydroxynaphthalene], for which, in the series with E. coli MG1655 (yhcP+), the MIC came out at 0.5 mM (≈ 80.1 µg/mL) and the “Rank Diff” value stood at 1. Moreover, in the series on E. coli DPD2444 (yhcP−), the MIC turned out to be 0.25 mM (≈ 40 µg/mL) and the “Fold Diff” value stood at 2.

As to `O=C(O)c1ccc2ccccc2c1O` [1-hydroxy-2-naphthoic acid], in the series on E. coli MG1655 (yhcP+), the MIC came out at 0.62 mM (≈ 117 µg/mL) and the “Rank Diff” value is 0. Moreover, in the series with E. coli DPD2444 (yhcP−), the MIC came out at 0.62 mM (≈ 117 µg/mL) and the “Fold Diff” value was found to be 1.

As for `O=C(O)c1cccc2ccccc12` [1-naphthoic acid], in the series on E. coli MG1655 (yhcP+), the MIC is 2.5 mM (≈ 430 µg/mL) and the “Rank Diff” value worked out at 0. In the series on E. coli DPD2444 (yhcP−), the MIC was determined as 2.5 mM (≈ 430 µg/mL) and the “Fold Diff” value was 1.

Take `O=C(O)c1cccc(O)c1O` [2,3-dihydroxybenzoic acid]: in the series on E. coli MG1655 (yhcP+), the MIC was determined as 10 mM (≈ 1540 µg/mL) and the “Rank Diff” value is 0. In addition, in the series on E. coli DPD2444 (yhcP−), the MIC came out at 10 mM (≈ 1540 µg/mL) and the “Fold Diff” value is recorded as 1.

As for `O=C(O)c1cc2ccccc2cc1C(=O)O` [2,3-naphthalenedicarboxylic acid], in the series with E. coli MG1655 (yhcP+), the MIC is 80 mM (≈ 17300 µg/mL) and the “Rank Diff” value stood at 0. In addition, in the series on E. coli DPD2444 (yhcP−), the MIC is 80 mM (≈ 17300 µg/mL) and the “Fold Diff” value was 1.

As to `COc1cccc(OC)c1O` [2,6-dimethoxyphenol], in the series on E. coli MG1655 (yhcP+), the MIC is 5 mM (≈ 771 µg/mL) and the “Rank Diff” value was 0. Also, in the series on E. coli DPD2444 (yhcP−), the MIC is 5 mM (≈ 771 µg/mL) and the “Fold Diff” value came to 1.

For `Oc1ccc2ccc(O)cc2c1` [2,7-dihydroxynaphthalene], in the series on E. coli MG1655 (yhcP+), the MIC amounted to 0.62 mM (≈ 99.3 µg/mL) and the “Rank Diff” value came to 1. In the series with E. coli DPD2444 (yhcP−), the MIC was determined as 0.31 mM (≈ 49.7 µg/mL) and the “Fold Diff” value worked out at 2.

In the case of `O=C(O)c1ccccc1-c1ccccc1` [2-biphenylcarboxylic acid], in the series on E. coli MG1655 (yhcP+), the MIC came out at 2.5 mM (≈ 496 µg/mL) and the “Rank Diff” value was 0. Moreover, in the series on E. coli DPD2444 (yhcP−), the MIC turned out to be 2.5 mM (≈ 496 µg/mL) and the “Fold Diff” value was 1.

For `O=C(O)C=Cc1ccccc1O` [2-hydroxycinnamate], in the series with E. coli MG1655 (yhcP+), the “MIC, MG1655 (yhcP+)” value came to 20 mM (≈ 3280 µg/mL) and the “Rank Diff” value worked out at 2. Further, in the series with E. coli DPD2444 (yhcP−), the “MIC, DPD2444 (yhcP−)” value was determined as 10 mM (≈ 1640 µg/mL); the “Fold Diff” value amounted to 2; the “defined as substrate of the YhcP efflux pump by this genetic test” value was “substrates of the YhcP efflux pump”.

Take `O=C(O)c1ccc2ccccc2c1` [2-naphthoic acid]: in the series on E. coli MG1655 (yhcP+), the MIC was 20 mM (≈ 3440 µg/mL) and the “Rank Diff” value came out at 1. Moreover, in the series on E. coli DPD2444 (yhcP−), the MIC turned out to be 10 mM (≈ 1720 µg/mL) and the “Fold Diff” value turned out to be 2.

For the molecule `O=C(O)C=Cc1ccc(O)c(O)c1` [3,4-dihydroxycinnamate], in the series with E. coli MG1655 (yhcP+), the “MIC, MG1655 (yhcP+)” value is recorded as 0.62 mM (≈ 112 µg/mL) and the “Rank Diff” value is 0. For the same molecule, in the series with E. coli DPD2444 (yhcP−), the “MIC, DPD2444 (yhcP−)” value amounted to 0.62 mM (≈ 112 µg/mL) and the “Fold Diff” value is 1.

`COc1cc(C=CC(=O)O)cc(OC)c1O` [3,5-dimethoxy-4-hydroxycinnamate]: in the series with E. coli MG1655 (yhcP+), the “MIC, MG1655 (yhcP+)” value is given as 10 mM (≈ 2240 µg/mL) and the “Rank Diff” value is on record as 0. Further, in the series on E. coli DPD2444 (yhcP−), the “MIC, DPD2444 (yhcP−)” value was 10 mM (≈ 2240 µg/mL) and the “Fold Diff” value is on record as 1.

As to `O=C(O)c1cc2ccccc2cc1O` [3-hydroxy-2-naphthoic acid], in the series with E. coli MG1655 (yhcP+), the MIC stood at 1.2 mM (≈ 226 µg/mL) and the “Rank Diff” value amounted to 0. Moreover, in the series with E. coli DPD2444 (yhcP−), the MIC was 1.2 mM (≈ 226 µg/mL) and the “Fold Diff” value stood at 1.

`O=C(O)c1ccc2cc(O)ccc2c1` [6-hydroxy-2-naphthoic acid]: in the series on E. coli MG1655 (yhcP+), the MIC was 20 mM (≈ 3760 µg/mL) and the “Rank Diff” value was found to be 3. For the same molecule, in the series on E. coli DPD2444 (yhcP−), the MIC amounted to 2.5 mM (≈ 470 µg/mL), the “Fold Diff” value came to 8 and the “defined as substrate of the YhcP efflux pump by this genetic test” value is “substrates of the YhcP efflux pump”.

On to `O=C(O)c1ccccc1` [Benzoate], for which, in the series on E. coli MG1655 (yhcP+), the “MIC, MG1655 (yhcP+)” value is 25 mM (≈ 3050 µg/mL) and the “Rank Diff” value was determined as 0. In the series on E. coli DPD2444 (yhcP−), the “MIC, DPD2444 (yhcP−)” value is recorded as 25 mM (≈ 3050 µg/mL) and the “Fold Diff” value is recorded as 1.

Consider `O=C(O)C=Cc1ccccc1` [CA, cinnamic acid], for which the “sensitivity of strain DPD2444 as compared with MG1655 (in words)” value in series [1] (240 compounds at 4 concentrations each) is on record as “hypersensitive”. In addition, the “Phenotypes Lost - Slower Growth/Sensitivity: Difference” value in series [1] (PM19, well C 11, Strain 16 (DPD2444) vs Strain 14 (MG1655)) is reported as −83. For the same molecule, in series [2], the “expression of the yhcP gene upon treatment of E. coli cells” value was “highly upregulated”. Moreover, in the series with E. coli MG1655 (yhcP+), the MIC was 20 mM (≈ 2960 µg/mL) and the “Rank Diff” value was found to be 1. In addition, in the series with E. coli DPD2444 (yhcP−), the MIC was determined as 10 mM (≈ 1480 µg/mL) and the “Fold Diff” value is on record as 2. Further, the “difference in growth inhibition of the two strains (in words)” value in the series on E. coli DPD2444 (yhcP−) (MG1655 versus DPD2444) was “slight difference”.

`COC(=O)c1ccc(O)cc1` [Methyl paraben]: in the series on E. coli MG1655 (yhcP+), the MIC was 3.8 mM (≈ 578 µg/mL) and the “Rank Diff” value turned out to be 0. In the series with E. coli DPD2444 (yhcP−), the MIC amounted to 3.8 mM (≈ 578 µg/mL) and the “Fold Diff” value is recorded as 1.

In the case of `O=C(O)c1ccccc1O` [Salicylate], in the series with E. coli MG1655 (yhcP+), the “MIC, MG1655 (yhcP+)” value is on record as 100 mM (≈ 13800 µg/mL) and the “Rank Diff” value is recorded as 0. Besides, in the series with E. coli DPD2444 (yhcP−), the “MIC, DPD2444 (yhcP−)” value amounted to 100 mM (≈ 13800 µg/mL) and the “Fold Diff” value is on record as 1.

For `C=C1CCOC1=O` [Tulipalin], in the series with E. coli MG1655 (yhcP+), the “MIC, MG1655 (yhcP+)” value came to 0.008% and the “Rank Diff” value worked out at 0. For the same molecule, in the series with E. coli DPD2444 (yhcP−), the “MIC, DPD2444 (yhcP−)” value stood at 0.008% and the “Fold Diff” value is listed as 1.

For the molecule `C[S+](C)[O-]` [dimethyl sulfoxide (DMSO), dimethyl sulfoxide], in the series on E. coli MG1655 (yhcP+), the “MIC, MG1655 (yhcP+)” value is recorded as 20% and the “Rank Diff” value came to 0. Also, in the series on E. coli DPD2444 (yhcP−), the “MIC, DPD2444 (yhcP−)” value is given as 20% and the “Fold Diff” value was 1.
